# Reference: US20240344128A1, “IDENTIFICATION AND ELIMINATION OF DAMAGED AND/OR SENESCENT CELLS” (FUNDACIÓN DEL SECTOR PÜBLICO ESTATAL CENTRO NACIONAL DE …, priority 2017, published 2024)
# Key:
# PD-L2 mRNA [1] = assay: PD-L1 and PD-L2 mRNA by quantitative RT-PCR in mouse cell lines after 48 hours of genotoxic drugs; type: cell-based; details: C2C12, HcMel3 and HcMel13 cells
# Method: C2C12, HcMel3 and HcMel12 (FIG. 3) were treated with 12×10^−3 units/ml bleomycin or doxorubicin 500 nM (C2C12) or 167 nM (HcMel3 and HcMel12) for 48 hours. Total RNA was isolated using TRI Reagent (Sigma-Aldrich #T9424) according to the manufacturer's instructions.
# (§1) The isolated RNA was quantified using a nanodrop machine NanoVue (GE Healthcare). cDNA synthesis was performed with 2-7 μg of total RNA using the “iScript Advanced cDNA Synthesis kit” from BIO-RAD (#1725037). Quantitative real-time PCR was carried out with diluted cDNA (1:10) and “GoTaq qPCR Master Mix” (Promega A6002). Reactions were performed in triplicate in a 15 μl volume reaction mix prepared as follow: 7.5 μl 2X GoTaq qPCR Master Mix; 0.6 μl of pre-mixed primers (10 μM forward primer and 10 μM reverse primer); 1.9 μl nuclease-free water and 5 μl template cDNA (previously diluted 1:10).
# The qRT-PCR reaction was performed on a 7500 Fast Real-Time PCR System (Applied Biosystems) using “MicroAmp Fast Optical 96-well reaction plate with barcode” (Thermo Fisher #4346906) and “MicroAmp Optical adhesive film” (Thermo Fisher #4311971). The reaction consisted in two holding stages (50° C. for 2:00 min and 95° C. for 10:00 min) and 40 amplification reactions (95° C. for 00:15 min/60° C. for 01:00 min/72° C. for 00:30 min) followed by a Melt Curve Stage. […]
# PD-L2 mRNA [2] = assay: PD-L1 and PD-L2 mRNA by quantitative RT-PCR in human tumor cell lines; type: cell-based; details: SK-Mel-103 cells, 7 days
# Method: Treated cells were not further split and their media was not changed for the duration of the treatment. Control cells were split every 3-4 days as previously described. One week after the start of the treatment, total RNA was isolated from control and treated cells with TRI Reagent (Sigma-Aldrich #T9424) following the manufacturer instructions. The isolated RNA was quantified using a nanodrop machine NanoVue (GE Healthcare). cDNA synthesis was performed with 2-7 μg of total RNA using the “iScript Advanced cDNA Synthesis kit” from BIO-RAD (#1725037). Quantitative real-time PCR was carried out with diluted cDNA (1:10) and “GoTaq qPCR Master Mix” (Promega A6002). Reactions were performed in triplicate in a 15 μl volume reaction mix prepared as follow: 7.5 μl 2X GoTaq qPCR Master Mix; 0.6 μl of pre-mixed primers (10 μM forward primer and 10 μM reverse primer); 1.9 μl nuclease-free water and 5 μl template cDNA (previously diluted 1:10). The qRT-PCR reaction was performed on a 7500 Fast Real-Time PCR System (Applied Biosystems) using “MicroAmp Fast Optical 96-well reaction plate with barcode” (Thermo Fisher #4346906) and “MicroAmp Optical adhesive film” (Thermo Fisher #4311971). […]
# SK-Mel-103 cells = assay: 53BP1 immunofluorescence (DNA double-strand breaks); type: cell-based, human; details: 7 days
# Method: SK-Mel-103 cells were seeded at 50% confluency on round 12 mm diameter coverslips (Marienfeld #0111520) previously placed inside 24 well plates. The following day, cells were treated with the senescence-inducing agents: 2 μM Palbociclib, […], 1 μM Nutlin and 6×10^−3 units/ml Bleomycin. Treated cells were not further split and their media was not changed for the duration of the treatment (7 days). Control cells were seeded similarly to treated, cells 24-48 hours prior the beginning of the procedure. Seven days after addition of the senescence-inducing agents, control and treated cells were washed with 1×PBS and Fixed on 2% paraformaldehyde-PBS for 10 minutes. The cells were then permeabilized with 0.25% Triton-PBS for 5 minutes, washed twice with 1×PBS and blocked with 5% BSA-PBS for 30 minutes. Next, the cells were incubated for 30 minutes with anti-53BP1 antibody (Abcam #ab172580) previously diluted 1:100 in blocking buffer (5% BSA-PBS), washed 3 times for 10 minutes with 1X PBS and incubated in the dark for 30 additional minutes with the secondary antibody: goat anti-rabbit Alexa Fluor 546 (ThermoFisher #A-11010) diluted 1:400 in blocking buffer. Finally, the cells were washed again 3 times for 10 minutes with 1×PBS and incubated with DAPI (Sigma #D9542) 300 nM in 1×PBS for 10 minutes. All the incubations and washed were performed at room temperature in 24 well plates. […]
# [3] = test system: SK-Mel-103, UT-SCC-38 and UT-SCC-42B cells; assay: SA-β gal / senescent response in human tumor cell lines; type: cell-based; details: SK-Mel-103 cells, 7 days
# Method: SK-Mel-103, UT-SCC-38 and UT-SCC-42B the cell lines were maintained in DMEM (Gibco) supplemented with 10% fetal bovine serum (Gibco) with antimycotic-antibiotic (Gibco), and incubated in 20% O2 sand 5% CO2 at 37° C. SK-Mel-103 and UT-SCC-42B cells were split 1:10 every 3-4 days. UT-SCC-38 were split 1:3 every 3-4 days.
# Eight days before the assay 20.000 SK-Mel-103 cells and 40.000 UT-SCC-38 and UT-SCC-42B cells were seeded into 6 well tissue culture plates (Falcon). The next day cells were treated with 2 μM Palbociclib. SK-Mel-103 cells were also treated with 10 nM Doxorubicin, 1 μM Nutlin or 6×10^−3 units/ml Bleomycin. All the cells were incubated in the presence of the senescence-inducing agents for at least 7 days without changing the media. Control cells were seeded in 6 well plates 24-48 hours prior the SA-β gal assay.
# SA-β galactosidase activity was assessed with the β-Galactosidase Staining Kit from Cell Signaling (#9860) following the manufactured instructions with one single variation: the pH of the “Staining Solution” (supplemented with buffers A and B and X-gal) was carefully adjusted to 6.
# PD-L2 mRNA [4] = assay: PD-L2 mRNA in mouse melanoma cell lines B16F1 and B16F10; type: cell-based; details: B16F1 and B16F10 cells; data not shown
# lungs = assay: Bleomycin-induced lung fibrosis in C57BL6 mice; type: in vivo, mouse; details: single intratracheal dose, 14 days
# Method: SA-β galactosidase activity was assessed in whole mount lungs (FIG. 5A) and xenografts (FIG. 6B) using the Senescence β-Galactosidase Staining Kit (Cell Signaling #9860). Lungs were fixed for 45 minutes with a solution containing 2% formaldehyde and 0.2% glutaraldehyde in PBS for 45 minutes and washed three times with PBS. Fixed tissues were subsequently stained overnight (16 hours) with X-gal staining solution (adjusted to pH 6.0).
# For gene expression analysis lungs were isolated and embedded in optimal cutting temperature (OCT) compound (Leica Biosystems). To obtain total RNA of OCT embedded tissue samples, 10 cryostat sections of 10 μm thickness were cut and excess OCT were removed. Cryosections were lysed in TRI Reagent (Sigma-Aldrich #T9424), pooled and processed according to manufacturer's instructions. cDNA was synthesized using 2 μg of total RNA. cDNA synthesis and RT-qPCR were performed as previously described. The Ct values of the genes of interest were averaged and normalized to the housekeeping gene Gapdh.
# Lung fibrosis was induced in C57BL6 mice (ENVIGO) by intratracheal delivery of a single dose of bleomycin (1.5 U/kg) or vehicle (PBS). 14 days after intratracheal injection, lung samples of vehicle (control) or bleomycin (fibrotic)-treated mice were collected for the analysis of SA-β gal activity and gene expression.
# senescent cells = details: cited from earlier work; for elimination of senescent cells: literature reports
# PD-L2 mRNA [5] = assay: Doxorubicin-induced PD-L2 mRNA in C2C12 cells with enzymatic inhibitors; type: cell-based, mouse; details: 500 nM doxorubicin, 48 hours
# Method: C2C12 cells (FIG. 9) were treated with 500 nM doxorubicin for 48 hours in the presence or absence of the following inhibitors at the indicated concentrations: IKKi (50 μM), PIMi (1 μM), rotenone (1 μM), JAKi (3 μM), rapamycin (50 nM) and metformin (5 mM) or cultured in pyruvate-depleted media (FIG. 9A). In addition, C2C12 cells were incubated for 6 hours in the presence or absence of TLRs agonists (Mouse TLR1-9 Agonist kit. Invivogen): TLR1/2 agonist (Pam3CSK4, 300 ng/ml), TLR2 agonist (HKLM, 10^8 cells/ml), TLR3 agonist (Poly (I:C) HMW and Poly (I:C) LMW, 10 μg/ml), TLR4 agonist (LPS-EK, 10 μg/ml), TRL5 agonist (FLA-ST, 1 μg/ml), TRL6/2 agonist (FSL-1, 100 ng/ml), TRL7 agonist (ssRNA40, 5 μg/ml) and TLR9 agonist (ODN1826, 5 μM). Total RNA was isolated using TRI Reagent (Sigma-Aldrich #T9424) according to the manufacturer's instructions.
# as §1
# The qRT-PCR reaction was performed on a 7500 Fast Real-Time PCR System (Applied Biosystems) using “MicroAmp Fast Optical 96-well reaction plate with barcode” (Thermo Fisher #4346906) and “MicroAmp Optical adhesive film” (Thermo Fisher #4311971). The reaction consisted in two holding stages (50° C. for 2:00 min and 95° C. for 10:00 min) and 40 amplification reactions (95° C. for 00:15 min/60° C. for 01:00 min/72° C. for 00:30 min) followed by a Melt Curve Stage.
# The Ct values of the genes of interest were averaged and normalized to the housekeeping gene β-actin. For each cell line and condition at least two independent experiments were performed.
molecule,measurement,setting,value
"COc1cccc2c1C(=O)c1c(O)c3c(c(O)c1C2=O)C[C@@](O)(C(=O)CO)C[C@@H]3O[C@H]1C[C@H](N)[C@H](O)[C@H](C)O1 [doxorubicin, Doxorubicin]",PD-L2 mRNA,PD-L2 mRNA [1],dramatic increase in PD-L2 mRNA
Nutlin,PD-L2 mRNA levels,PD-L2 mRNA [2],had a similar effect on PD-L2 mRNA levels
same,DNA damage (53BP1 foci),SK-Mel-103 cells,absence of 53BP1 foci in the chromatin
same,induction of senescence,[3],induce senescence in the SK-Mel-103 cells
Bleomycin,PD-L2 mRNA levels,PD-L2 mRNA [2],had a similar effect on PD-L2 mRNA levels
same,DNA damage (53BP1 foci),SK-Mel-103 cells,exhibited nuclear 53-BP1 foci
same,PD-L2 mRNA,PD-L2 mRNA [4],PD-L2 mRNA up-regulation
same,induction of senescence,[3],induce senescence in the SK-Mel-103 cells
same,senescent cells (SA-β galactosidase positive staining) in whole fibrotic lungs,lungs,accumulation of senescent cells
same,PD-L2 and PD-L1 mRNA in fibrotic organs,lungs; lung,"significant and specific up-regulation of PD-L2 mRNA, but not of PD-L1 mRNA"
same,PD-L2 mRNA,PD-L2 mRNA [1],dramatic increase in PD-L2 mRNA
O=c1c(O)c(-c2ccc(O)c(O)c2)oc2cc(O)cc(O)c12 [Quercetin],number of damaged and/or senescent cells,"senescent cells; Dasatinib and Quercetin used in combination, aged, progeroid and irradiation-exposed mice",reduced the number of damaged and/or senescent cells
CC1(C)CCC(c2ccc(Cl)cc2)=C(CN2CCN(c3ccc(C(=O)NS(=O)(=O)c4ccc(N[C@H](CCN5CCOCC5)CSc5ccccc5)c(S(=O)(=O)C(F)(F)F)c4)cc3)CC2)C1 [Navitoclax],elimination of senescent cells,senescent cells,efficiently eliminate senescent cells in vitro and in vivo
CN(C)CC[C@H](CSc1ccccc1)Nc1ccc(S(=O)(=O)NC(=O)c2ccc(N3CCN(Cc4ccccc4-c4ccc(Cl)cc4)CC3)cc2)cc1[N+](=O)[O-] [ABT-737],elimination of senescent cells,senescent cells,selectively eliminate senescent cells
"Fc1cc(-c2cccc3ncc(-c4cnn(C5CCNCC5)c4)nc23)cc(F)c1CN1CCOCC1 [JAK inhibitor, NVP-BSK805]",PD-L2 induction,PD-L2 mRNA [5],prevented PD-L2 induction
"Cc1ccc(S(=O)(=O)/C=C/C#N)cc1 [NFkB inhibitor, BAY 11-7082]",PD-L2 induction,PD-L2 mRNA [5],prevented PD-L2 induction
C=C(C)[C@H]1Cc2c(ccc3c2O[C@@H]2COc4cc(OC)c(OC)cc4[C@@H]2C3=O)O1 [rotenone],PD-L2 induction,PD-L2 mRNA [5],prevented PD-L2 induction
CN(C)C(=N)N=C(N)N [metformin],PD-L2 induction,PD-L2 mRNA [5],prevented PD-L2 induction
